Assay results from patent EP4273147A1, “SUBSTITUTED SPIROLACTAMS, SALTS THEREOF AND THEIR USE AS HERBICIDALLY ACTIVE SUBSTANCES” (Bayer Aktiengesellschaft, priority 2022, dated 2023).

How the values were obtained:
[1] = system: ECHCG; assay: Herbicidal pre-emergence action (Table A2); format: in vivo, Echinochloa crus-galli; conditions: application rate 320 g/ha; visual grading after ca. 3 weeks
Summary of the method: (§1)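 One monocotyledonous and one dicotyledonous weed species shared each pot. Seeds were sown in sandy loam and covered over with soil.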

[2] = system: LOLRI; assay: Herbicidal pre-emergence action (Table A3); format: in vivo, Lolium rigidum; conditions: application rate 320 g/ha; visual grading after ca. 3 weeks
Summary of the method: as §1

[3] = system: MATIN; assay: Herbicidal pre-emergence action (Table A4); format: in vivo, Matricaria inodora; conditions: application rate 1280 g/ha; visual grading after ca. 3 weeks
Summary of the method: as §1

[4] = system: SETVI; assay: Herbicidal pre-emergence action (Table A5); format: in vivo, Setaria viridis; conditions: application rate 320 g/ha; visual grading after ca. 3 weeks
Summary of the method: as §1

[5] = system: STEME; assay: Herbicidal pre-emergence action (Table A6); format: in vivo, Stellaria media; conditions: application rate 320 g/ha; visual grading after ca. 3 weeks
Summary of the method: as §1

[6] = system: POAAN; assay: Herbicidal pre-emergence action (Table A7); format: in vivo, Poa annua; conditions: application rate 320 g/ha; visual grading after ca. 3 weeks
Summary of the method: as §1

[7] = system: ALOMY; assay: Herbicidal pre-emergence action, section C (Table C2); format: in vivo, Alopecurus myosuroides; conditions: visual grading after ca. 3 weeks
[8] = system: DIGSA; assay: Herbicidal pre-emergence action, section C (Table C5); format: in vivo, Digitaria sanguinalis; conditions: application rate 80 g/ha; visual grading after ca. 3 weeks
Source text: (§3) Seeds of mono- and dicotyledonous weed plants and crop plants were sown, in plastic or organic planting pots, in sandy loam and covered with soil. The compounds according to the invention, formulated in the form of wettable powders (WP) or as emulsifiable concentrates (EC), were applied to the surface of the covering soil as aqueous suspension or emulsion, with the addition of 0.5% of an additive, at an application rate of 600 1 of water/ha (converted). Following treatment, the pots were placed in a greenhouse and kept under optimum growth conditions for the test plants.

[9] = system: ECHCG; assay: Herbicidal pre-emergence action, section C (Table C6); format: in vivo, Echinochloa crus-galli; conditions: application rate 80 g/ha; visual grading after ca. 3 weeks
[10] = system: MATIN; assay: Herbicidal pre-emergence action, section C (Table C8); format: in vivo, Matricaria inodora; conditions: application rate 320 g/ha; visual grading after ca. 3 weeks
[11] = system: SETVI; assay: Herbicidal pre-emergence action, section C (Table C10); format: in vivo, Setaria viridis; conditions: application rate 80 g/ha; visual grading after ca. 3 weeks
Source text: as §3

[12] = system: VERPE; assay: Herbicidal pre-emergence action, section C (Table C11); format: in vivo, Veronica persica; conditions: visual grading after ca. 3 weeks
[13] = system: VIOTR; assay: Herbicidal pre-emergence action, section C (Table C12); format: in vivo, Viola tricolor; conditions: visual grading after ca. 3 weeks
[14] = system: ZEAMX; assay: Pre-emergence effects on crop plants (Table D1); format: in vivo, Zea mays; conditions: crop plant; application rate 80 g/ha; visual grading after ca. 3 weeks
[15] = system: TRZAS; assay: Pre-emergence effects on crop plants (Table D2); format: in vivo, Triticum aestivum; conditions: crop plant; application rate 320 g/ha; visual grading after ca. 3 weeks
[16] = system: GLXMA; assay: Pre-emergence effects on crop plants (Table D4); format: in vivo, Glycine max; conditions: crop plant; application rate 320 g/ha; visual grading after ca. 3 weeks
[17] = system: BRSNW; assay: Pre-emergence effects on crop plants (Table D5); format: in vivo, Brassica napus; conditions: crop plant; application rate 320 g/ha; visual grading after ca. 3 weeks
[18] = system: ALOMY; assay: Herbicidal post-emergence action, section E (Table E2); format: in vivo, Alopecurus myosuroides; conditions: assessed visually after ca. 3 weeks
Source text: (§2) 2 to 3 weeks after sowing, the test plants were sprayed in the single-leaf stage.

[19] = system: ECHCG; assay: Herbicidal post-emergence action, section E (Table E5); format: in vivo, Echinochloa crus-galli; conditions: application rate 320 g/ha; assessed visually after ca. 3 weeks
Source text: as §2

[20] = system: POLCO; assay: Herbicidal post-emergence action, section E (Table E7); format: in vivo, Polygonum convolvulus; conditions: application rate 320 g/ha; assessed visually after ca. 3 weeks
Source text: as §2

[21] = system: VERPE; assay: Herbicidal post-emergence action, section E (Table E9); format: in vivo, Veronica persica; conditions: application rate 320 g/ha; assessed visually after ca. 3 weeks
Source text: as §2

[22] = system: VIOTR; assay: Herbicidal post-emergence action, section E (Table E10); format: in vivo, Viola tricolor; conditions: application rate 320 g/ha; assessed visually after ca. 3 weeks
Source text: as §2

[23] = system: ZEAMX; assay: Post-emergence effects on crop plants (Table F1); format: in vivo, Zea mays; conditions: application rate 320 g/ha, crop plant ZEAMX
Source text: as §2

[24] = system: TRZAS; assay: Post-emergence effects on crop plants (Table F2); format: in vivo, Triticum aestivum; conditions: crop plant TRZAS
Source text: as §2

[25] = system: ORYZA; assay: Post-emergence effects on crop plants (Table F3); format: in vivo, Oryza sativa; conditions: crop plant ORYZA
Source text: as §2

[26] = system: GLXMA; assay: Post-emergence effects on crop plants (Table F4); format: in vivo, Glycine max; conditions: application rate 80 g/ha, crop plant GLXMA
Source text: as §2

[27] = system: BRSNW; assay: Post-emergence effects on crop plants (Table F5); format: in vivo, Brassica napus; conditions: crop plant BRSNW
Source text: as §2

[28] = system: ORYZA; assay: Pre-emergence effects on crop plants (Table D3); conditions: crop plant; application rate 320 g/ha; visual grading after ca. 3 weeks
[29] = system: AMARE; assay: Herbicidal pre-emergence action, section C (Table C3); format: in vivo, Amaranthus retroflexus; conditions: application rate 320 g/ha; visual grading after ca. 3 weeks
Source text: as §3

[30] = system: AVEFA; assay: Herbicidal pre-emergence action, section C (Table C4); format: in vivo, Avena fatua; conditions: application rate 320 g/ha; visual grading after ca. 3 weeks
Source text: as §3

[31] = system: LOLRI; assay: Herbicidal pre-emergence action, section C (Table C7); format: in vivo, Lolium rigidum; conditions: application rate 320 g/ha; visual grading after ca. 3 weeks
[32] = system: POLCO; assay: Herbicidal pre-emergence action, section C (Table C9); format: in vivo, Polygonum convolvulus; conditions: application rate 80 g/ha; visual grading after ca. 3 weeks
[33] = system: DIGSA; assay: Herbicidal post-emergence action, section E (Table E4); format: in vivo, Digitaria sanguinalis; conditions: application rate 320 g/ha; assessed visually after ca. 3 weeks
Source text: as §2

O=C1N(Cc2cc(F)ccc2F)CCCC12CCCN(Cc1cc(F)ccc1F)C2=O (racemic) [I-017]
pre-emergence activity against ECHCG [1]: 100%
pre-emergence activity against LOLRI [2]: 100%
pre-emergence activity against MATIN [3]: 90%
pre-emergence activity against SETVI [4]: 100%
pre-emergence activity against STEME [5]: 90%
pre-emergence activity against POAAN [6]: 100%
pre-emergence activity against ALOMY ([7]; application rate 320 g/ha): 90%
pre-emergence activity against DIGSA [8]: 100%
pre-emergence activity against ECHCG [9]: 100%
pre-emergence activity against MATIN [10]: 80%
pre-emergence activity against SETVI [11]: 90%
pre-emergence activity against VERPE ([12]; application rate 80 g/ha): 90%
pre-emergence activity against VIOTR ([13]; application rate 320 g/ha): 80%
pre-emergence activity against ZEAMX [14]: 10%
pre-emergence activity against TRZAS [15]: 10%
pre-emergence activity against GLXMA [16]: 20%
pre-emergence activity against BRSNW [17]: 20%
post-emergence activity against ALOMY ([18]; application rate 320 g/ha): 80%
post-emergence activity against ECHCG [19]: 80%
post-emergence activity against POLCO [20]: 100%
post-emergence activity against VERPE [21]: 80%
post-emergence activity against VIOTR [22]: 80%
post-emergence activity against ZEAMX [23]: 10%
post-emergence activity against TRZAS ([24]; application rate 320 g/ha): 10%
post-emergence activity against ORYZA ([25]; application rate 320 g/ha): 0%
post-emergence activity against GLXMA [26]: 20%
post-emergence activity against BRSNW ([27]; application rate 80 g/ha): 0%
pre-emergence activity against ORYZA [28]: 20%

O=C1N(Cc2c(F)cccc2F)CCCC12CCCN(Cc1c(F)cccc1F)C2=O (single isomer, unassigned; (-)) [I-009, (-)-2,8-bis[(2,6-difluorophenyl)methyl]-2,8-diazaspiro[5.5]undecane-1,7-dione]
pre-emergence activity against ALOMY ([7]; application rate 80 g/ha): 100%
pre-emergence activity against AMARE [29]: 90%
pre-emergence activity against AVEFA [30]: 90%
pre-emergence activity against DIGSA [8]: 100%
pre-emergence activity against ECHCG [9]: 100%
pre-emergence activity against LOLRI [31]: 100%
pre-emergence activity against MATIN [10]: 90%
pre-emergence activity against POLCO [32]: 80%
pre-emergence activity against SETVI [11]: 100%
pre-emergence activity against VERPE ([12]; application rate 320 g/ha): 90%
pre-emergence activity against VIOTR ([13]; application rate 80 g/ha): 80%
post-emergence activity against ALOMY ([18]; application rate 80 g/ha): 80%
post-emergence activity against DIGSA [33]: 90%
post-emergence activity against ECHCG [19]: 90%
post-emergence activity against VERPE [21]: 80%
post-emergence activity against ZEAMX [23]: 20%
post-emergence activity against TRZAS ([24]; application rate 80 g/ha): 10%
post-emergence activity against ORYZA ([25]; application rate 80 g/ha): 10%
post-emergence activity against GLXMA [26]: 20%
post-emergence activity against BRSNW ([27]; application rate 320 g/ha): 20%
